Source: ChEMBL document CHEMBL3352151, “In vitro and in vivo antibacterial evaluation and mechanistic study of ornithine based small cationic lipopeptides against antibiotic resistant clinical isolates” (Eur J Med Chem, 2014)
In brackets after ≈: the same amount, converted by molar mass. Activity calls are given as the source filed them. No cut-off for these calls is given here. Square brackets hold non-standard residues; d marks the D form. Peptide text beside a SMILES is read from it. * marks the point of attachment. Stearoyl = CCCCCCCCCCCCCCCCCC(=O)*; Myristoyl = CCCCCCCCCCCCCC(=O)*; Orn = NCCC[CH](N)C(=O)O

Assays:
[1] = Cytotoxicity against human HaCaT cells assessed as cell viability at 100 ug/ml after 18 hrs by MTT assay; type: cell-based; conditions: read-out: Activity
Pseudomonas aeruginosa [2] = test: Antibacterial activity against clinical isolates of Pseudomonas aeruginosa PGI/DML02084 after overnight incubation by microdilution broth assay; type: functional
Staphylococcus aureus [3] = test: Antibacterial activity against clinical isolates of methicillin-resistant Staphylococcus aureus PGI/DML03149 after overnight incubation by microdilution broth assay; type: functional
Staphylococcus aureus [4] = test: Antibacterial activity against clinical isolates of Staphylococcus aureus PGI/DML03054 after overnight incubation by microdilution broth assay; type: functional
Enterococcus faecalis [5] = test: Antibacterial activity against clinical isolates of gentamicin-resistant Enterococcus faecalis GMCH/R-Gen011 after overnight incubation by microdilution broth assay; type: functional
Klebsiella pneumoniae [6] = test: Antibacterial activity against clinical isolates of Klebsiella pneumoniae GMCH/B0127 after overnight incubation by microdilution broth assay; type: functional
Escherichia coli [7] = test: Antibacterial activity against clinical isolates of imipenem-resistant Escherichia coli PGI/DML02292 after overnight incubation by microdilution broth assay; type: functional
Pseudomonas aeruginosa [8] = test: Antibacterial activity against clinical isolates of streptomycin-resistant Pseudomonas aeruginosa PGI/DML01991 after overnight incubation by microdilution broth assay; type: functional
Acinetobacter baumannii [9] = test: Antibacterial activity against clinical isolates of Acinetobacter baumannii GMCH/B0083 after overnight incubation by microdilution broth assay; type: functional
Escherichia coli [10] = test: Antibacterial activity against clinical isolates of Escherichia coli PGI/DML02250 after overnight incubation by microdilution broth assay; type: functional
Enterococcus faecium [11] = test: Antibacterial activity against clinical isolates of penicillin-resistant Enterococcus faecium GMCH/R-Pen003 after overnight incubation by microdilution broth assay; type: functional
Enterococcus faecalis [12] = test: Antibacterial activity against clinical isolates of Enterococcus faecalis GMCH/B0091 after overnight incubation by microdilution broth assay; type: functional
[13] = system: Staphylococcus epidermidis; test: Antibacterial activity against clinical isolates of ampicillin-resistant Staphylococcus epidermidis GMCH/R-Amp008 after overnight incubation by microdilution broth assay; type: functional
[14] = system: Staphylococcus epidermidis; test: Antibacterial activity against clinical isolates of Staphylococcus epidermidis GMCH/B0057 after overnight incubation by microdilution broth assay; type: functional
Streptococcus pneumoniae [15] = test: Antibacterial activity against clinical isolates of Streptococcus pneumoniae PGI/DML02468 after overnight incubation by microdilution broth assay; type: functional
Klebsiella pneumoniae [16] = test: Antibacterial activity against clinical isolates of kanamycin-resistant Klebsiella pneumoniae GMCH/R-Kan006 after overnight incubation by microdilution broth assay; type: functional
Enterococcus faecium [17] = test: Antibacterial activity against clinical isolates of Enterococcus faecium GMCH/B0102 after overnight incubation by microdilution broth assay; type: functional
Acinetobacter baumannii [18] = test: Antibacterial activity against clinical isolates of imipenem-resistant Acinetobacter baumannii GMCH/R-Imi003 after overnight incubation by microdilution broth assay; type: functional
Haemophilus influenzae [19] = test: Antibacterial activity against clinical isolates of ciprofloxacin-resistant Haemophilus influenzae PGI/DML01744 after overnight incubation by microdilution broth assay; type: functional
[20] = Cytotoxicity against human HaCaT cells assessed as cell viability at 500 ug/ml after 18 hrs by MTT assay; type: cell-based; conditions: read-out: Activity
Streptococcus pneumoniae [21] = test: Antibacterial activity against clinical isolates of erythromycin-resistant Streptococcus pneumoniae PGI/DML02213 after overnight incubation by microdilution broth assay; type: functional
Haemophilus influenzae [22] = test: Antibacterial activity against clinical isolates of Haemophilus influenzae PGI/DML01751 after overnight incubation by microdilution broth assay; type: functional
[23] = Membrane permeabilization activity assessed as release of calcein from liposomes at 1:50 lipopeptide:lipid molar ratio after 5 mins by fluorescence assay
Plasma = test: Drug degradation in human plasma at 1 ug/ml after 24 hrs by RP-HPLC analysis; type: ADME, cell-free
Escherichia coli [24] = test: Binding affinity to Escherichia coli PGI/DML02292 DNA at 12 ug/ml after 1 hr by agarose gel electrophoresis
[25] = Membrane permeabilization activity assessed as release of calcein from liposomes at 1:10 lipopeptide:lipid molar ratio after 5 mins by fluorescence assay
[26] = Membrane permeabilization activity assessed as release of calcein from liposomes after 5 mins by fluorescence assay

Row | Compound | viability at 18 h, 100 ug/ml [1] | MIC (Pseudomonas aeruginosa [2]) | MIC (Staphylococcus aureus [3]) | MIC (Staphylococcus aureus [4]) | MIC (Enterococcus faecalis [5]) | MIC (Klebsiella pneumoniae [6]) | MIC (Escherichia coli [7]) | MIC (Pseudomonas aeruginosa [8]) | MIC (Acinetobacter baumannii [9]) | MIC (Escherichia coli [10]) | MIC (Enterococcus faecium [11]) | MIC (Enterococcus faecalis [12]) | MIC [13] | MIC [14] | MIC (Streptococcus pneumoniae [15]) | MIC (Klebsiella pneumoniae [16]) | MIC (Enterococcus faecium [17]) | MIC (Acinetobacter baumannii [18]) | MIC (Haemophilus influenzae [19]) | MIC (Streptococcus pneumoniae [21]) | other results
1 | CCCCCCCCCCCCCC(=O)NC(CCCN)C(=O)NC(CCCN)C(=O)NC(CCCN)C(=O)NC(CCCN)C(=O)NC(CCCN)C(N)=O (stereo unspecified) (Myristoyl-[Orn][Orn][Orn][Orn][Orn]-NH2; configuration not given here) | > 80% | 1.5 µg/mL (≈ 1.88 µM) | 12.5 µg/mL (≈ 15.7 µM) | 10 µg/mL (≈ 12.5 µM) | 10.5 µg/mL (≈ 13.2 µM) | 6.2 µg/mL (≈ 7.77 µM) | 6.25 µg/mL (≈ 7.83 µM) | 4.25 µg/mL (≈ 5.32 µM) | 8.25 µg/mL (≈ 10.3 µM) | 2.5 µg/mL (≈ 3.13 µM) | 6.21 µg/mL (≈ 7.78 µM) | 1.5 µg/mL (≈ 1.88 µM) | 12.5 µg/mL (≈ 15.7 µM) | 7.5 µg/mL (≈ 9.4 µM) | 3.5 µg/mL (≈ 4.39 µM) | 7.5 µg/mL (≈ 9.4 µM) | 3.1 µg/mL (≈ 3.88 µM) | 6.5 µg/mL (≈ 8.14 µM) | 15.5 µg/mL (≈ 19.4 µM) | 12.5 µg/mL (≈ 15.7 µM) | viability at 18 h, 500 ug/ml [20]: > 80%; MIC (Haemophilus influenzae [22]): 12.5 µg/mL (≈ 15.7 µM)
2 | CCCCCCCCCCCCCCCCCC(=O)NC(CCCN)C(=O)NC(CCCN)C(=O)NC(CCCN)C(=O)NC(CCCN)C(=O)NC(CCCN)C(N)=O (stereo unspecified) (Stearoyl-[Orn][Orn][Orn][Orn][Orn]-NH2; configuration not given here) | > 80% | 2.5 µg/mL (≈ 2.93 µM) | 10.5 µg/mL (≈ 12.3 µM) | 6.2 µg/mL (≈ 7.26 µM) | 15 µg/mL (≈ 17.6 µM) | 4 µg/mL (≈ 4.68 µM) | 7.5 µg/mL (≈ 8.78 µM) | 5 µg/mL (≈ 5.85 µM) | 10 µg/mL (≈ 11.7 µM) | 5 µg/mL (≈ 5.85 µM) | 12.5 µg/mL (≈ 14.6 µM) | 4.5 µg/mL (≈ 5.27 µM) | 10.5 µg/mL (≈ 12.3 µM) | 4.5 µg/mL (≈ 5.27 µM) | 2.5 µg/mL (≈ 2.93 µM) | 12.5 µg/mL (≈ 14.6 µM) | 6.2 µg/mL (≈ 7.26 µM) | 7.5 µg/mL (≈ 8.78 µM) | 15 µg/mL (≈ 17.6 µM) | 10 µg/mL (≈ 11.7 µM) | viability at 18 h, 500 ug/ml [20]: > 80%; MIC (Haemophilus influenzae [22]): 10 µg/mL (≈ 11.7 µM)
3 | CCCCCCCCCC(=O)N[C@@H](Cc1c[nH]c2ccccc12)C(=O)N[C@H](CC(N)=O)C(=O)N[C@@H](CC(=O)O)C(=O)N[C@@H]1C(=O)NCC(=O)N[C@@H](CCCN)C(=O)N[C@@H](CC(=O)O)C(=O)N[C@H](C)C(=O)N[C@@H](CC(=O)O)C(=O)NCC(=O)N[C@H](CO)C(=O)N[C@@H]([C@H](C)CC(=O)O)C(=O)N[C@@H](CC(=O)c2ccccc2N)C(=O)O[C@@H]1C |  |  | 1.25 µg/mL (≈ 0.771 µM) | 0.7 µg/mL (≈ 0.432 µM) | 1.5 µg/mL (≈ 0.926 µM) |  |  |  |  |  | 2.5 µg/mL (≈ 1.54 µM) | 1.75 µg/mL (≈ 1.08 µM) | 1.5 µg/mL (≈ 0.926 µM) | 0.5 µg/mL (≈ 0.309 µM) | 1.25 µg/mL (≈ 0.771 µM) |  | 2 µg/mL (≈ 1.23 µM) |  |  | 1.5 µg/mL (≈ 0.926 µM) | 
4 | CCCCCCCCCCCCCCCCCC(=O)NC(CCCN)C(=O)NC(CCCN)C(=O)NC(CCCN)C(=O)NC(CCCN)C(N)=O (stereo unspecified) (Stearoyl-[Orn][Orn][Orn][Orn]-NH2; configuration not given here) | 82% | 4.5 µg/mL (≈ 6.08 µM) | 7.5 µg/mL (≈ 10.1 µM) | 5 µg/mL (≈ 6.76 µM) | 10 µg/mL (≈ 13.5 µM) | 3.5 µg/mL (≈ 4.73 µM) | 7.5 µg/mL (≈ 10.1 µM) | 2 µg/mL (≈ 2.7 µM) | 10 µg/mL (≈ 13.5 µM) | 7.5 µg/mL (≈ 10.1 µM) | 12.5 µg/mL (≈ 16.9 µM) | 3.1 µg/mL (≈ 4.19 µM) | 5 µg/mL (≈ 6.76 µM) | 5.5 µg/mL (≈ 7.43 µM) | 4 µg/mL (≈ 5.4 µM) | 8 µg/mL (≈ 10.8 µM) | 7.5 µg/mL (≈ 10.1 µM) | 12.5 µg/mL (≈ 16.9 µM) | 12.5 µg/mL (≈ 16.9 µM) | 12.5 µg/mL (≈ 16.9 µM) | Activity [23]: 43%; Stability (Plasma): Stable; Activity (Escherichia coli [24]): inactive; Activity [25]: 79%; Activity [26]: Dose-dependent effect; viability at 18 h, 500 ug/ml [20]: 67%; MIC (Haemophilus influenzae [22]): 8 µg/mL (≈ 10.8 µM)
